Laboratory results: patent US20240336615A1, “CYCLOPROPYL-(HETERO)ARYL-SUBSTITUTED ETHYL-SULFOXIME-PYRIDINE DERIVATIVES” (Boehringer Ingelheim Vetmedica GmbH, priority 2023, published 2024)

Experiments:
[1] = tested on: adult Ctenocephalides felis fleas; experiment: Contact activity against adult Ctenocephalides felis (Example 4); settings: adult C. felis, coated pipe cleaner in vial, 72 hours post-treatment, read-out: EC50 (contact activity, percentage mortality)
Procedure: Compounds of formulae (I), (Ia) and/or (Ib) dissolved in 100% DMSO are diluted in acetone to a desired concentration. The resulting formulation is used to coat the fibers of a 0.5-inch-long piece of pipe cleaner placed in a glass scintillation vial. The vial is capped with a rubber gasket and filter paper insert. After the acetone has evaporated, ten adult Ctenocephalides felis fleas are added to each vial. The vials are then incubated at 22° C., 80% relative humidity, and 12 hours of light/12 hours of dark until a visual evaluation for mortality is performed at 72 hours post-treatment. Compound efficacy at a given dose is expressed as percentage mortality and adjusted to remove background mortality observed in control vials containing DMSO only. A dose response series of treated vials is implemented to determine EC50 values.

adult C. felis fleas [2] = experiment: Ingestion activity against adult Ctenocephalides felis, membrane feeding, motility (Example 6); settings: 48 h, bovine blood via artificial membrane, 48h post treatment, read-out: EC50 (ingestion activity, % motility reduction)
Procedure: Compounds of formulae (I), (Ia) and/or (Ib) dissolved in 100% DMSO are added to bovine blood and offered via an artificial membrane feeding system to adult C. felis fleas. The motility of fleas is then visually inspected 48h post treatment. Efficacy is expressed in % motility reduction compared to controls containing blood treated with DMSO only. A dose response series is implemented to determine EC50 values.

adult C. felis fleas [3] = experiment: Ingestion activity against adult Ctenocephalides felis, membrane feeding, alternative method (Examples 7 and 13); settings: Ctenocephalides felis
Procedure: Selected compounds of formula (I), (Ia) and (Ib) and compound “125” of WO 2021/033141 dissolved in 100% DMSO are diluted in bovine blood with sodium heparin anti-coagulant. The resulting formulation is offered via an artificial membrane feeding system to approximately 15 adult C. felis fleas previously dispensed into 24-well plates. The plates are then incubated in a double-chambered device. Visual evaluation for mortality is performed at 48 hours post-treatment. Compound efficacy at a given dose is expressed as percentage mortality and determined by normalization to positive and negative controls. A dose response series is implemented to determine EC50 values.
Compounds of formulae (I), (Ia) and/or (Ib) dissolved in 100% DMSO are diluted in bovine blood with sodium heparin anti-coagulant. The resulting formulation is offered via an artificial membrane feeding system to approximately 15 adult C. felis fleas previously dispensed into 24-well plates. The plates are then incubated in a double-chambered device. Visual evaluation for mortality is performed at 48 hours post-treatment. Compound efficacy at a given dose is expressed as percentage mortality and determined by normalization to positive and negative controls. A dose response series is implemented to determine EC50 values.

Spodoptera litura = experiment: Insecticidal test on Spodoptera litura (Example 14); type: in vivo; settings: foliar, 192 h, cabbage leaf dip, 2nd-instar larvae, 8 days after inoculation, read-out: activity level (corrected mortality rate)
Procedure: The compounds of formula (I), (Ia) and/or (Ib) of the present invention or salts thereof are separately dispersed in water and diluted to 500 ppm and 50 ppm. Cabbage leaves are dipped in the dispersion for about 30 seconds. After air dried, the leaves are placed in a plastic Petri dish with a diameter of 9 cm and inoculated with ten 2nd-instar larvae of Spodoptera litura, after which the dish is closed and then allowed to stand in a room at 25° C. 8 days after the inoculation, the numbers of the dead and alive insects are counted. The corrected mortality rate is calculated according to the following formula and the insecticidal activity is evaluated according to the following criteria.
[formula] [formula] • A: the corrected mortality rate is 100% • B: the corrected mortality rate is 90 to 99% • C: the corrected mortality rate is 80 to 89% • D: the corrected mortality rate is 50 to 79%

Plutella xylostella = experiment: Insecticidal test on Plutella xylostella (Example 15); type: in vivo; settings: 144 h, Chinese cabbage seedling dip, 6 days after dip treatment, read-out: activity level (corrected mortality rate)
Procedure: The compounds of formula (I), (Ia) and/or (Ib) of the present invention or salts thereof are separately dispersed in water and diluted to 500 ppm and 50 ppm. Ten adults of Plutella xylostella are released onto Chinese cabbage seedlings and allowed to lay eggs thereon. 2 days after the release of the adults, the seedling is dipped in the dispersion for about 30 seconds. After air dried, the seedling is kept in a room at 25° C. 6 days after the dip treatment, the numbers of the dead and alive insects are counted. The corrected mortality rate is calculated according to the following formula and the insecticidal activity is evaluated according to the following criteria.

Laodelphax striatellus = experiment: Insecticidal test on Laodelphax striatellus (Example 16); type: in vivo; settings: 192 h, rice seedling dip, 3rd-instar nymphs, 8 days after inoculation, read-out: activity level (corrected mortality rate)
Procedure: The compounds of formula (I), (Ia) and/or (Ib) of the present invention or salts thereof are separately dispersed in water and diluted to 500 ppm and 50 ppm. Rice plant seedlings are dipped in the dispersion for about 30 seconds. After air dried, the seedlings are put into a separate glass test tube and inoculated with ten 3rd-instar nymphs of Laodelphax striatellus and then the glass test tube is kept in a room at 25° C. 8 days after the inoculation, the numbers of the dead and alive insects are counted. The corrected mortality rate is calculated according to the following formula and the insecticidal activity is evaluated according to the following criteria.

Myzus persicae = experiment: Insecticidal test on Myzus persicae (Example 17); type: in vivo; settings: 144 h, foliar application on Chinese cabbage, 6 days after application, read-out: control efficacy level (control rate)
From the text: The compounds of formula (I), (Ia) and/or (Ib) of the present invention or salts thereof are separately dispersed in water and diluted to 500 ppm and 50 ppm. Chinese cabbage plants are planted in plastic pots (diameter: 8 cm, height: 8 cm). Aphids (Myzus persicae) are propagated on the plants and then the number of surviving aphids is counted. The dispersion is applied to the foliage of the potted plants. After the plants are air dried, these are kept in a greenhouse. 6 days after the application, the number of the alive insects is counted on the plants. The control rate is calculated according to the following formula and the control efficacy is evaluated according to the following criteria. [formula] • Ta: the number of alive insects before the foliar application in a treated plot • T: the number of alive insects after the foliar application in a treated plot • Ca: the number of alive insects before the foliar application in an untreated plot • C: the number of alive insects after the foliar application in an untreated plot • A: the control rate is 100% • B: the control rate is 90 to 99% • C: the control rate is 80 to 89% • D: the control rate is 50 to 79%

[4] = tested on: adult R. sanguineus ticks; experiment: Contact activity against adult Rhipicephalus sanguineus (Example 5); settings: coated vials, 48 hours post-treatment, read-out: EC50 (contact activity, percentage mortality)
Procedure: Compounds of formulae (I), (Ia) and/or (Ib) formulated in 100% DMSO are diluted in a solution containing acetone and Triton X-100 (0.02%). The resulting formulation is used to coat the inner walls of glass scintillation vials and the filter paper covering the cap of the vial. Once dried, ten adult R. sanguineus ticks are added to the vials. The vials are incubated at 24° C., 95% relative humidity, and 12 hours of light/12 hours of dark until evaluation. Ticks are visually evaluated for mortality at 48 hours post-treatment. Compound efficacy at a given dose is expressed as percentage mortality. A dose response series is implemented to determine EC50 values.

[5] = adult C. felis, bovine blood with sodium heparin, membrane feeding, 48 hours post-treatment, read-out: EC50 (ingestion activity, percentage mortality, alternative method)
[6] = alternative method according to Example 7, mortality at 48 hours post-treatment, read-out: C. felis membrane feeding (ingestion/blood feeding) activity EC50

| Structure (SMILES) | EC50 [1] [µM] | EC50 (adult C. felis fleas [2]) [nM] | EC50 (adult C. felis fleas [3]; [5]) [nM] | EC50 (adult C. felis fleas [3]; [6]) [nM] | mortality at 500 ppm (Spodoptera litura) [%] | mortality at 500 ppm (Plutella xylostella) [%] | mortality at 500 ppm (Laodelphax striatellus) [%] | pest or weed control at 500 ppm (Myzus persicae) [%] | EC50 [4] [µM] | mortality at 50 ppm (Spodoptera litura) [%] | mortality at 50 ppm (Plutella xylostella) [%] | mortality at 50 ppm (Laodelphax striatellus) [%] | pest or weed control at 50 ppm (Myzus persicae) [%] |
| --- | --- | --- | --- | --- | --- | --- | --- | --- | --- | --- | --- | --- | --- |
| CCS(=N)(=O)c1cc(-c2cn(C3CC3)cn2)cnc1-c1nc2cc(C(F)(F)C(F)(F)F)cnc2n1C (stereo not drawn) [Compound 21] | 10 to 100 | < 1000 | < 1000 | 403 | 100 | 100 | 100 | 100 | – | – | – | – | – |
| CCS(=N)(=O)c1cc(-c2cc(C3CC3)ns2)cnc1-c1nc2cc(C(F)(F)C(F)(F)F)cnc2n1C (stereo not drawn) [Compound 20] | < 10 | < 1000 | 1000 to 10000 | – | – | – | – | – | 10 to 100 | 100 | 100 | 100 | – |
| CCS(=N)(=O)c1cc(-c2noc(C3CC3)n2)cnc1-c1nc2cc(C(F)(F)C(F)(F)F)nnc2n1C (stereo not drawn) [Compound 8] | < 10 | 1000 to 10000 | < 1000 | 643 | – | 100 | 100 | 100 | 10 to 100 | – | – | – | – |
| CCS(=N)(=O)c1cc(-c2noc(C3(F)CC3)n2)cnc1-c1nc2cc(C(C)(F)F)nnc2n1C (stereo not drawn) [Compound 29] | 10 to 100 | – | 1000 to 10000 | – | – | 100 | 100 | 100 | – | – | – | – | – |
| CCS(=N)(=O)c1cc(-n2cc(C3(C#N)CC3)cn2)cnc1-c1nc2cc(C(F)(F)C(F)(F)F)cnc2n1C (stereo not drawn) [Compound 26] | – | < 1000 | < 1000 | 875 | 100 | 100 | 100 | 100 | – | – | – | – | – |
| CCS(=N)(=O)c1cc(-c2noc(C3(C(F)(F)F)CC3)n2)cnc1-c1nc2cc(C(F)(F)C3CC3)nnc2n1C (stereo not drawn) [Compound 4] | 10 to 100 | < 1000 | < 1000 | 474 | – | – | – | – | – | – | – | – | – |
| CCS(=N)(=O)c1cc(-c2ccc(C3(C#N)CC3)cc2)cnc1-c1nc2cc(C(C)(F)F)cnc2n1C (stereo not drawn) [Compound 2] | – | 1000 to 10000 | 1000 to 10000 | – | 100 | 100 | 100 | 100 | – | – | – | – | – |
| CCS(=N)(=O)c1cc(-c2cc(C3CC3)sn2)cnc1-c1nc2cc(C(F)(F)C(F)(F)F)cnc2n1C (stereo not drawn) [Compound 25] | 10 to 100 | < 1000 | 1000 to 10000 | – | – | – | 100 | – | – | 100 | 100 | – | 100 |
| CCS(=N)(=O)c1cc(-n2cc(C3CC3)cn2)cnc1-c1nc2cc(C(F)(F)C(F)(F)F)nnc2n1C (stereo not drawn) [Compound 34] | 10 to 100 | – | – | – | 100 | 100 | 100 | 100 | – | – | – | – | – |
| CCS(=N)(=O)c1cc(-n2cc(C3CC3)nn2)cnc1-c1nc2cc(C(F)(F)C(F)(F)F)cnc2n1C (stereo not drawn) [Compound 28] | – | 1000 to 10000 | 1000 to 10000 | – | 100 | 100 | 100 | 100 | – | – | – | – | – |
| CCS(=N)(=O)c1cc(-c2noc(C3(F)CC3)n2)cnc1-c1nc2cc(C(F)(F)C(F)(F)F)nnc2n1C (stereo not drawn) [Compound 32] | < 10 | < 1000 | < 1000 | 417 | – | – | – | – | – | – | 100 | 100 | 100 |
| CCS(=N)(=O)c1cc(-c2cnn(C3CC3)c2)cnc1-c1nc2cc(C(F)(F)C(F)(F)F)cnc2n1C (stereo not drawn) [Compound 22] | 10 to 100 | < 1000 | < 1000 | 981 | 100 | – | – | – | – | – | 100 | 100 | 100 |
